Assay results taken from patent US4110322A, “Peptide derivatives and pharmaceutical compositions containing same” (Akzona Incorporated, priority 1976, dated 1978).
Where no end group is shown, it is not given here. [ ]: non-standard residue; d: D form.

Key:
[1] = system: extinction of conditioned flight behaviour; settings: cited from earlier work; for retardation of the extinction of conditioned flight behaviour: European Journal of Pharmacology 2, 14 (1967)
[2] = system: extinction of conditioned flight behaviour; experiment: inhibition (retardation) of the extinction of conditioned flight behaviour; psychopharmacological activity; format: in vivo; settings: for Potency Ratio with Respect to 4-10 ACTH: 4-10 ACTH = 1
Description: This invention relates to the field of pharmaceutical compounds, and to the sub-field of psychopharmacologically active compounds. The compounds in question show an inhibition of the extinction of conditioned flight behaviour, as a result of which they are eminently suitable for the treatment of mental disorders in which a stimulation of the cerebral function is desired, such as in case of senility. The invention further relates to pharmaceutical compositions containing these peptide compounds or their derivatives where the latter are an active constituent.

Substance	Potency Ratio with Respect to 4-10 ACTH ([2]; Table I)	Potency Ratio with Respect to 4-10 ACTH ([2]; Table II)	also measured
4-10 ACTH: the peptide containing the amino-acid sequence 4-10 from ACTH (MEHFRWG; Corticotropin; UniProt P01189 141-147, looked up, fragment)	–	–	retardation of the extinction of conditioned flight behaviour [1]: as active as ACTH itself
ACTH: natural adrenocorticotropic hormone (SYSMEHFRWGKPVGKKRRPVKVYPNGAEDESAEAFPLEF; Corticotropin; UniProt P01189 138-176, looked up)	–	–	retardation of the extinction of conditioned flight behaviour [1]: retard the extinction
FRWGKPVGKK [7-16 ACTH]	1	1	–
F[dK]FGKPVGK	–	1	–
F[dK]FGKPVGKK	100	100	–
F[dK]FG[dK]PVGKK	–	10,000	–
H-L-Met (→ O)-L-Glu-L-His-L-Phe-D-Lys-L-Phe-OH	–	–	activity relative to the unchanged 4-9 ACTH ([1]; psychopharmacological activity, peptide of the earlier U.S. patents): about 1000 times
Phe-Arg-Trp [7-9 ACTH]	0.1	–	–
Phe-[dK]-Phe	0.1	–	psychopharmacological activity (in words) ([2]; in vivo): some psychopharmacological activity, although in a latent form
